According to patent US9045484B2, “Inhibitors of the BMP signaling pathway” (The Brigham and Women's Hospital, Inc., priority 2008, dated 2015):

Tests used:
[1] = Microsomal stability in pooled mouse liver microsomes; assay type: in vitro ADME; conditions: 0.5 mg/mL microsome protein, 1 mM NADPH
Description: Test compound (3 μM final concentration) along with 0.5 mg/mL microsome protein and 1 mM NADPH was incubated for 0, 5, 15, 30 and 60 min. Incubation of test compound and microsomes in the absence of NADPH served as a negative control. The samples were quenched with methanol and centrifuged for 20 min at 2500 rpm to precipitate proteins. Sample supernatants were analyzed (N=3) by LC/MS. The ln peak area ratio (compound peak area/internal standard peak area) was plotted against time and the slope of the line determined to give the elimination rate constant [k=(−1)(slope)]. The half life (t1/2 in minutes) and the in vitro intrinsic clearance (CLint in μL/min/mg protein) values were calculated according to the following equations, where V=incubation volume in μL/mg protein: […]

[2] = system: IL6-induced hepcidin expression in HepG2 cells; experiment: IL6-induced hepcidin expression in HepG2 hepatoma cells; assay type: cell-based, human; conditions: pretreatment 5-625 nM for 30 min, IL6 50 ng/mL 1.5 h; FIG. 7
Description: HepG2 cells pretreated with compound 13 (5-625 nM) or vehicle for 30 min. were incubated with IL6 (50 ng/mL) for 1.5 h. Cells were harvested, and hepcidin mRNA and 18S rRNA levels were measured by quantitative RT-PCR. Changes in gene expression were normalized to 18S ribosomal RNA levels using the relative cycle threshold method.

[3] = system: turpentine-challenged C57BL/6 mice; experiment: Turpentine-induced hypoferrinemia, 24 h after one turpentine injection; assay type: in vivo
Description: Mice received a subcutaneous injection of turpentine, and 24 h later, serum was obtained for measurement of iron concentrations. Compound 13 (3 mg/kg) or vehicle was administered ip concurrently with turpentine and 12 hours later.

[4] = system: C57BL/6 wild-type mice; experiment: 30-day treatment of wild-type mice, circulating blood cell lineages; assay type: in vivo, C57BL/6 mice
[5] = system: hepcidin; experiment: Hepatic hepcidin expression in the steady state after 30 days treatment; assay type: in vivo, C57BL/6 mice; conditions: 3 mg/kg/d IP for 30 days; FIG. 16
Description: Ten-week-old male C57BL/6 mice fed a normal iron replete diet were treated chronically with compound 13 (3 mg/kg/d IP) or vehicle for 30 days, and hepatic hepcidin mRNA levels were measured by quantitative RT-PCR.

[6] = system: turpentine-treated C57BL/6 mice; experiment: Established turpentine-induced anemia of inflammation (rescue); assay type: in vivo
Description: After the establishment of anemia, treatment with either vehicle or compound 13 (3 mg/kg/d IP) is begun concurrently with an additional 3 weeks of weekly turpentine injections, to assess the potential for rescuing established turpentine-induced anemia of inflammation. […] Shaded areas indicate normative values in C57BL/6 mice for each parameter.

[7] = system: LDL-R-deficient mice; experiment: Vascular calcification in high-fat diet fed LDL-R-deficient mice, Osteosense probe imaging of aortas; assay type: in vivo; conditions: 16 weeks high fat diet; compound 13 mg/kg IP twice daily; FIG. 24
Description: Adult (10 week old) LDL-R-deficient mice on a C57BL/6 background were subjected to a high-lipid atherogenic diet, concurrently with vehicle treatment or drug treatment (compound 13 mg/kg IP twice daily) started simultaneously with atherogenic diet. After 16 weeks of high fat diet and drug treatment, aortas, carotids, and left ventricular outflow tract were harvested and prepared as appropriate for histochemical staining or immunohistological staining, by en face mounting and fixation, or for paraffin embedded tissue sections for histology. To analyze early osteogenesis (as a precursor to calcification), mice were injected intravenously with Osteosense probe (VisEn) 24 hours prior to harvest, and harvested aortas were rinsed with phosphate buffered saline. Visualization of Osteosense probe was accomplished by near-IR fluorescence ([…]) using a LICOR laser scanner. This technique readily detected signal in aortas obtained from high-fat diet LDL-R-deficient mice treated with vehicle control (e, f, and g), while relatively little background signal was obtained in wild-type mice given a normal diet (a, b). Non-fluorescent imaging of wild-type aortas is also depicted (c, d).

[8] = system: constitutively-active mutant form of ALK2
[9] = 3 mg/kg/d IP for 30 days, average (n = 4)

c1ccc2c(-c3cnn4cc(-c5ccc(N6CCNCC6)cc5)cnc34)ccnc2c1 [Compound 13, 4-[6-(4-piperazin-1-ylphenyl)pyrazolo[1,5-a]pyrimidin-3-yl]quinoline]
half-life at 3 μM ([1]; read-out: half-life (t1/2) in mouse liver microsomes): 1.37 h | microsomal CLint at 3 μM ([1]; read-out: intrinsic clearance (CLint) in mouse liver microsomes): 16.9 ± 5.6 µL/min/mg | IL6-mediated increase in hepcidin mRNA levels [2]: abrogated the IL6-mediated increase in hepcidin mRNA levels in a dose-dependent fashion | turpentine-induced reduction in serum iron levels ([3]; 3 mg/kg ip with turpentine and 12 hours later, FIG. 8): prevented turpentine-induced reduction in serum iron levels | hepatic hepcidin mRNA levels after turpentine ([3]; two doses 3 mg/kg IP every 12 hours, FIG. 9): prevented elevation of hepatic hepcidin mRNA levels | myelosuppression, thrombocytopenia, anemia or erythrocytosis ([4]; 3 mg/kg/d IP for 30 days): did not appear to cause myelosuppression, thrombocytopenia, anemia or conversely erythrocytosis | % Lymphocyte [4, 9]: 63.1% | % Monocyte [4, 9]: 3.8% | % Neutrophil [4, 9]: 30.8% | % Reticulocyte [4, 9]: 2.6% | Hb [4, 9]: 11.9 g/dL | Hct [4, 9]: 43.8% | MCHC [4, 9]: 27.3 g/dL | MCV [4, 9]: 48.5 fL | Platelet count [4, 9]: 8.305e+11 L⁻¹ | RBC [4, 9]: 9e+12 L⁻¹ | RDW [4, 9]: 18.6% | Total WBC [4, 9]: 1.9e+09 L⁻¹ | serum iron in the steady state ([4]; 30 days treatment, compared to vehicle-treated controls, data not shown): did not cause an elevation of serum iron | basal hepatic hepcidin mRNA levels relative to vehicle-treated mice [5]: 40% | blood hemoglobin ([6]; 3 mg/kg/d IP for final 3 weeks of 6 weeks turpentine, FIG. 17): significant improvement | hematocrit ([6]; 3 mg/kg/d IP for final 3 weeks of 6 weeks turpentine, FIG. 18): restoration of hematocrit to values within the normal range | mean corpuscular volume (MCV) ([6]; 3 mg/kg/d IP for final 3 weeks of 6 weeks turpentine, FIG. 19): restores MCV to low-normal levels | neutrophilia ([6]; FIG. 21): induced neutrophilia regardless of treatment with vehicle or compound 13 | reticulocyte counts ([6]; cotreatment for final 3 weeks of 6 weeks turpentine, FIG. 20): restores high-normal reticulocyte counts | Osteosense near-IR fluorescence of aortas [7]: less intense than that of vehicle-treated controls | ectopic calcification and disability ([8]; FOP mutant mice, 3 mg/kg ip twice daily, FIG. 14): prevented the ectopic calcification and disability | skeletal development ([8]; wild type mice, 3 mg/kg BID): exhibited normal skeletal development
